From patent US20260198495A1, “BINARY INSECTICIDE COMPOSITION AND USE THEREOF” (SHENYANG SINOCHEM AGROCHEMICALS R & D CO., LTD., priority 2022, published 2026)

Key:
Type in all cases: in vivo
[1] = test system: 3rd-instar larvae of Yponomeuta evonymallus (Linnaeus); assay: Synergism screening (Bliss) of I-72 + pyrethroid insecticides, Example 37, Table 37; conditions: single pesticide, leaf dipping, 72 hours
Description: Test target: 3rd-instar larvae of Yponomeuta evonymallus (Linnaeus).
(§1) Preparation of the pesticide solution: according to different test requirements, the test samples were accurately weighed respectively with an electronic analytical balance. The technical pesticides were dissolved in acetone, and then diluted with 0.1% Tween 80 water into a series of pesticide solutions with a certain concentration gradient according to the experimental design dosage.
(§2) Experimental method: Firstly, Hylotelephium spectabile leaves were selected and dipped into the prepared pesticide solutions for 10 s in the order from low dosage to high dosage according to the experimental design. After natural air-drying in the shade, they were placed in a 9-cm-diameter Petri dish with filter paper, and uniform and healthy test insects were introduced, with 10 insects for each treatment and 3 replicates for each treatment. In addition, a blank control (CK) was set up.
(§3) The treated test materials were placed in an observation room, and the temperature, humidity and illumination of the observation room could be adjusted as needed. The number of dead and alive insects was investigated 72 hours later, and the corrected mortality rate was calculated using the Abbott's formula.
The synergism of the mixture was evaluated by the Bliss method. According to the concept of independent joint action he proposed, Bliss believes that the theoretical mortality rate P when insecticides are used in combination can be calculated by the following formula: […]
Pm is the measured mortality rate (%) of the target when the first active ingredient is at a concentration of m; and Pn is the measured mortality rate (%) of the target when the second active ingredient is used at a concentration of n.
If the actual mortality rate of the target after the two active ingredients are mixed at a certain concentration is greater than theoretical mortality rate P, it is determined that the two active ingredients have a synergistic effect when used in combination at the set concentration, and otherwise, they have an antagonistic effect.

Rhizoctonia solani = assay: Control efficacy against Rhizoctonia solani, rice seedling potting method, Example 89, Table 89; conditions: rice seedlings, foliar spraying
Description: Control efficacy of the composition containing the compound I-72 against Rhizoctonia solani
Test target: Rhizoctonia solani, a sensitive strain cultured indoors.
The trial adopted the seedling potting method. Test crop: rice. Experimental method: the rice seedlings were cultured to the 2-leaf stage in the greenhouse of the experimental materials. Foliar spraying treatment was performed on the crop sprayer according to the designed dosage. The test target strain was inoculated 24 hours after the pesticide treatment. All the inoculated experimental materials were cultured in a phytotron. […] The disease grading and the calculation method of the control efficacy both referred to the agricultural industry standards of the People's Republic of China.

[2] = test system: Bemisia tabaci (Gennadius) nymphs; assay: Joint toxicity of I-72 + organophosphorus insecticides, cotton leaf-disk spraying, Example 18, Table 18; conditions: nymphs, cotton leaf-disk spraying, 96 h, A = compound I-72, B = acephate, read-out: LC50
Description: Test target: Bemisia tabaci (Gennadius) nymphs.
as §1
Experimental method: first, cotton leaves with neat and consistent Bemisia tabaci (Gennadius) nymphs were selected and made into leaf disks, with about 20 insects on each leaf disk. Then, they were evenly sprayed with the pesticide solution in the order from low dosage to high dosage according to the experimental design, with 1.5 mL for each leaf and 3 replicates for each treatment. In addition, a blank control was set up.
The treated test materials were placed in an observation room, and the temperature, humidity and illumination of the observation room could be adjusted as needed. The number of dead and live insects was investigated 96 hours later. The corrected mortality rate was calculated using the Abbott's formula, and statistical analysis was performed with the DPS data processing software to obtain the toxicity regression equation, LC50 value and 95% confidence limit of each single test pesticide and each mixture of different ratios. Then, the co-toxicity coefficient of each ratio was calculated using the Sun Y-P method to evaluate the mixing effect (the same as in Example 1).

Aphis craccivora nymphs = assay: Synergism screening (Bliss) of I-72 + pyrethroid insecticides, Example 38, Table 38; conditions: Aphis craccivora, single pesticide, broad bean seedling spraying, 48 hours, read-out: Measured mortality rate (%)
Description: Test target: Aphis craccivora nymphs, a sensitive strain reared indoors.
as §1
(§4) Experimental method: first, broad bean seedlings with uniform and consistent Aphis craccivora were selected, with about 30-40 insects on each seedling. Then, they were evenly sprayed with the pesticide solution in the order from low dosage to high dosage according to the experimental design, with 1.5 mL of the solution for each leaf and 3 replicates for each treatment. In addition, a blank control (CK) was set up.
as §3, with “48” for “72”
(§5) The synergism of the mixture was evaluated by adopting the Bliss method, as in Example 5.

[3] = test system: 3rd-instar larvae of Ostrinia furnacalis Guenee; assay: Synergism screening (Bliss) of I-72 + ecdysteroid and juvenile hormone insecticides, Example 51, Table 51; conditions: Ostrinia furnacalis; single pesticide, 2 mg/L; 72 hours; read-out: Measured mortality rate
Description: Test target: 3rd-instar larvae of Ostrinia furnacalis Guenee.
as §1
as §2, with “first, tender corn stems” for “Firstly, Hylotelephium spectabile leaves”, “in” for “into”, “solution” for “solutions”
as §3, §5

[4] = test system: Myzus persicae (Sulzer) nymphs; assay: Joint toxicity of I-72 + fenvalerate, Example 46, Table 46; conditions: A = compound I-72, B = fenvalerate, cabbage leaf spraying, 48 hours, read-out: LC50
Description: Test target: Myzus persicae (Sulzer) nymphs, a sensitive strain reared indoors.
as §1
as §4, with “cabbage leaves” for “broad bean seedlings”, “Myzus persicae (Sulzer)” for “Aphis craccivora”, “leaf.” for “seedling.”, “control” for “control (CK)”
The treated test materials were placed in an observation room, and the temperature, humidity and illumination of the observation room could be adjusted as needed. The number of dead and live insects was investigated 48 hours later. […] Then, the co-toxicity coefficient of each ratio was calculated using the Sun Y-P method to evaluate the mixing effect (the same as in Example 1).

Q: `CN(C(=O)c1ccc2c(c1)OC(F)(F)O2)c1cccc(C(=O)Nc2c(Br)cc(C(F)(C(F)(F)F)C(F)(F)F)cc2OC(F)F)c1F` [Compound I-72] was tested. Which “Measured mortality rate (%)” value ([1]; concentration 0.1 mg/L) did it give?
A: 11.1%

Q: And the “Measured mortality rate (%)” value ([1]; concentration 5 mg/L)?
A: 57.1%

Q: And the Control efficacy (Rhizoctonia solani; 5 mg/L, A = compound I-72, B = coumoxystrobin)?
A: 0%

Q: What about the Control efficacy (Rhizoctonia solani; 5 mg/L, A = compound I-72, B = pyraoxystrobin) of the same molecule?
A: 0%

Q: And the Control efficacy (Rhizoctonia solani; 10 mg/L, A = compound I-72, B = coumoxystrobin)?
A: 0%

Q: What about the Control efficacy (Rhizoctonia solani; 10 mg/L, A = compound I-72, B = pyraoxystrobin) of the same molecule?
A: 0%

Q: What about the Control efficacy (Rhizoctonia solani; 20 mg/L, A = compound I-72, B = coumoxystrobin) of the same molecule?
A: 0%

Q: And the Control efficacy (Rhizoctonia solani; 20 mg/L, A = compound I-72, B = pyraoxystrobin)?
A: 0%

Q: What about the LC50 [2] of the same molecule?
A: 5.05 µg/mL

Q: What about the mortality at 0.1 µg/mL (Aphis craccivora nymphs; concentration 0.1 mg/L) of the same molecule?
A: 11.9%

Q: What about the mortality at 3 µg/mL (Aphis craccivora nymphs; concentration 3 mg/L) of the same molecule?
A: 60.6%

Q: And the mortality at 2 µg/mL [3]?
A: 75.9%

Q: And the LC50 [4]?
A: 8.2 µg/mL
